Experimental data published in PMC6946680, “Modulation of brain cation-Cl^− cotransport via the SPAK kinase inhibitor ZT-1a” (Nature Communications, 2020).
“And” between values parts separate entries of the source, which are not always exact repeats. Equal entries are not always repeated. “Also recorded” adds a separate entry of the source.

Assays:
[1] = Immunoblot of KCC site 1 phosphorylation (KCC3 Thr991) in HEK-293 cells transfected with FLAG-KCC3; assay type: cell-based, human
[2] = target: human SPAK 452-547(C-term) with WNK peptide (RFQV) (Homo sapiens, UniProt Q9UEW8); assay: Fluorescence polarization of SPAK–WNK peptide interaction; assay type: binding; settings: for Inhibitor vs SPAK FL (fluorescence polarization signal): Fig S5b
[3] = tested on: NCC pThr46/50/55/60; assay: Pharmacodynamic study, NCC phosphorylation in kidney of naive mice; assay type: in vivo, mouse; settings: Fig S8b (kidney)
Description: (§1) To define ZT-1a efficacy in naive mice in vivo, we examined phosphorylation of SPAK, NKCC1, and NCC in kidney, and phosphorylation of SPAK, NKCC1, and KCC3 in brain, after intraperitoneal (i.p.) administration of either ZT-1a (10, 30, 50, and 100 mg/kg) or Closantel (50 mg/kg as a reference). […]
(§2) 5. Pharmacodynamic (PD) study
(§3) Male C57BL/6j wild-type mice (6 weeks old, Charles River Laboratories Edinburgh UK) were treated with ZT-1a (in DMSO, Sigma) by subcutaneous injection at doses of 0, 3, 10, 30, 50 and 100 mg/kg. 50 mg/kg Closantel was administered as a comparative control. Vehicle control mice were treated with an equal volume of DMSO solution. One hour after administration, mice were sacrificed by cervical dislocation, and kidney and brain tissues were rapidly dissected and snap-frozen in liquid nitrogen. Age- […]
(§4) free conditions at the University of Dundee (UK) as described in our recent study1. Animal experiments and breeding were approved by the University of Dundee ethical committee and performed under a […]
(§5) Policy on the Care, Welfare and Treatment of Animals, and regulations set by the University of Dundee and the U.K. Home Office. […]
(§6) Brain and kidney tissues were collected at 60 min post injection, and proteins subjected to immunoblot were probed with antibodies specific for phosphorylated forms of SPAK,

[4] = tested on: NKCC1 pThr203/207/212; assay: Pharmacodynamic study, NKCC1 phosphorylation in kidney of naive mice; assay type: in vivo, mouse; settings: Fig S8b (kidney)
Description: as §1, §2, §3, §4, §5, §6

[5] = tested on: KCC3 pThr1048; assay: Pharmacodynamic study, KCC3 phosphorylation in brain of naive mice; assay type: in vivo, mouse; settings: for pTh1048 / KCC3: Fig S8a (brain)
Description: as §1, §2, §3, §4, §5, §6

[6] = tested on: NKCC1 pThr203/207/212; assay: Pharmacodynamic study, NKCC1 phosphorylation in brain of naive mice; assay type: in vivo, mouse; settings: for pTh203.207.212 / NKCC1: Fig S8a (brain)
Description: as §1, §2, §3, §4, §5, §6

[7] = tested on: regional cerebral blood flow; assay: Regional cerebral blood flow by laser speckle contrast imaging after tMCAO; assay type: in vivo, mouse; settings: for % CBF: single mice
Description: Regional cerebral blood flow was measured using a two-dimensional laser speckle contrast analysis system (PeriCam PSI High Resolution with PIMSoft, Perimed)[65]. Isoflurane-anesthetized mice were head-fixed using stereotaxic equipment during imaging. The skin was retracted to expose the intact skull. Images were taken at 19 frames/second with averaging. Average signal intensity was taken from fixed-size (0.5-mm^2) regions of interest drawn over the parietal bone plate on the ipsi (IL)- and contralateral (CL) sides. Percent perfusion values were taken in comparison with the mean values of the pre-ischemic ipsilateral side. Five consecutive images at each time period per animal were averaged for analysis. […]
cerebral blood flow (rCBF) in ischemic mice. a and d Representative two-dimensional laser speckle contrast images of rCBF. Vehicle (DMSO), ZT-1a (A, 2.5 mg/kg), or Closantel (D, 1.25 mg/kg, i.p.) was administered i.p. at 3 hr and again at 8 hr post-reperfusion after MCAO. Pseudocolor scale bar indicates relative signal intensity. b and e No changes of rCBF were detected in the non-ischemic […]
contralateral (CL) hemispheres of vehicle-control or ZT-1a-treated (b) or Closantel-treated mice (e).
Data are mean ± SD, n = 3. c and f Similar reductions and recoveries of rCBF in the ischemic ipsilateral hemispheres (IL) were detected in the ZT-1a-treated (c) or Closantel-treated ischemic mice (f), and neither differed from vehicle-injected mice. Data are mean ± SEM, n = 3.

[8] = tested on: SPAK pSer373; assay: Immunoblot of SPAK/OSR1 p-Ser373/Ser325 in HEK-293 cells; assay type: cell-based, human; settings: for pSPAK/SPAK band intensity ratio: single replicates
[9] = tested on: NKCC1 pThr203/207/212; assay: Immunoblot of NKCC1 p-Thr203/Thr207/Thr212 in HEK-293 cells; assay type: cell-based, human; settings: for pNKCC1/NKCC1 band intensity ratio: single replicates

Cc1cc(C(C#N)c2ccc(Cl)cc2)c(Cl)cc1NC(=O)c1cc(Cl)ccc1O (centres unmarked) [ZT-1a, 5-chloro-N-(5-chloro-4-((4-chlorophenyl)(cyano)methyl)-2-methylphenyl)-2-hydroxybenzamide]
T906/KCC2 band intensity ratio ([1]; Hypotonic low Cl, 1 uM, single replicates): 0.214 and 0.239 and 0.189 and 0.203 | T906/KCC2 band intensity ratio ([1]; Hypotonic low Cl, 3 uM, single replicates): 0.058 and 0.074 and 0.03 and 0.063 | T906/KCC2 band intensity ratio ([1]; Hypotonic low Cl, 10 uM, single replicates): 0.03 and 0.034 and 0.02 and 0.026 | T906/KCC2 band intensity ratio ([1]; Isotonic control, 1 uM, single replicates (Fig 2 source data)): 0.356 and 0.264 and 0.316 and 0.279 | T906/KCC2 band intensity ratio ([1]; Isotonic control, 3 uM, single replicates): 0.166 and 0.176 and 0.153 and 0.142 | T906/KCC2 band intensity ratio ([1]; Isotonic control, 10 uM, single replicates): 0.065 and 0.041 and 0.054 and 0.049 | IC50 ([2]; 10 nM Lumino-Green WNK peptide, read-out: IC50, decrease in fluorescence polarization (SPAK–WNK peptide)): 325 µM | Inhibitor vs SPAK FL (fluorescence polarization signal) ([2]; Inhibitor 1e-5 μM): 140.3 and 136 and 147.2 | Inhibitor vs SPAK FL (fluorescence polarization signal) ([2]; Inhibitor 0.0001 μM): 142.6 and 130.1 and 143.7 | Inhibitor vs SPAK FL (fluorescence polarization signal) ([2]; Inhibitor 0.001 μM): 141.9 and 135.2 and 145.3 | Inhibitor vs SPAK FL (fluorescence polarization signal) ([2]; Inhibitor 0.003 μM): 148.6 and 138.3 and 144.2 | Inhibitor vs SPAK FL (fluorescence polarization signal) ([2]; Inhibitor 0.01 μM): 150.4 and 140.8 and 146.2 | Inhibitor vs SPAK FL (fluorescence polarization signal) ([2]; Inhibitor 0.03 μM): 151.3 and 139.2 and 146.8 | Inhibitor vs SPAK FL (fluorescence polarization signal) ([2]; Inhibitor 0.1 μM): 152.2 and 141.6 and 147.3 | Inhibitor vs SPAK FL (fluorescence polarization signal) ([2]; Inhibitor 0.3 μM): 151.7 and 143.1 and 150.3 | Inhibitor vs SPAK FL (fluorescence polarization signal) ([2]; Inhibitor 1 μM): 154.3 and 140.8 and 151.4 | Inhibitor vs SPAK FL (fluorescence polarization signal) ([2]; Inhibitor 3 μM): 149 and 139.7 and 147.8 | Inhibitor vs SPAK FL (fluorescence polarization signal) ([2]; Inhibitor 10 μM): 149.9 and 139.1 and 147.3 | Inhibitor vs SPAK FL (fluorescence polarization signal) ([2]; Inhibitor 100 μM): 127.1 and 121.5 and 130.6 | pTh46.50.55 / NCC ([3]; 10 mg/kg): 1.78 and 1.82 and 2.81 and 2.21 | pTh60 / NCC ([3]; 10 mg/kg): 1.01 and 0.99 and 1 and 0.94 | pTh46.50.55 / NCC ([3]; 30 mg/kg): 2.61 and 1.78 and 2.06 and 1.98 | pTh60 / NCC ([3]; 30 mg/kg): 1.05 and 0.97 and 0.9 and 1.01 | pTh46.50.55 / NCC ([3]; 50 mg/kg): 0.4 and 0.7 and 0.69 and 0.55 | pTh46.50.55 / NCC ([3]; 100 mg/kg): 0.68 and 0.46 and 0.41 | pTh203.207.212 / NKCC1 ([4]; 10 mg/kg): 1.13 and 1.26 and 1.54 and 1.32 | pTh203.207.212 / NKCC1 ([4]; 30 mg/kg): 1.14 and 0.89 and 0.64 and 0.77 | pTh203.207.212 / NKCC1 ([4]; 100 mg/kg): 0.41 and 0.27 and 0.44 and 0.32 | KCC3 phosphorylation (pThr1048) in naive brains ([5]; 60 min after administration): neither drug had reduced | pTh1048 / KCC3 ([5]; 10 mg/kg): 1.01 and 0.99 and 1 and 0.95 | pTh1048 / KCC3 ([5]; 30 mg/kg): 1.05 and 0.97 and 0.9 and 0.96 | pTh1048 / KCC3 ([5]; 50 mg/kg): 0.87 and 0.92 and 1.06 and 0.97 | pTh1048 / KCC3 ([5]; 100 mg/kg): 0.94 and 0.87 and 0.99 and 0.9 | NKCC1 phosphorylation (pThr203/207/212) in naive brains ([6]; 60 min after administration): neither drug had reduced | pTh203.207.212 / NKCC1 ([6]; 10 mg/kg): 0.75 and 0.66 and 0.74 and 0.69 | pTh203.207.212 / NKCC1 ([6]; 30 mg/kg): 0.62 and 0.59 and 0.64 and 0.61 | pTh203.207.212 / NKCC1 ([6]; 50 mg/kg): 0.66 and 0.75 and 0.63 and 0.69 | pTh203.207.212 / NKCC1 ([6]; 100 mg/kg): 0.61 and 0.67 and 0.74 and 0.58 | % CBF ([7]; Fig S10b/S10e, Pre): 100% | % CBF ([7]; Fig S10b/S10e, Reperfusion 10 min): 99% and 109% and 96% | % CBF ([7]; Fig S10b/S10e, Reperfusion 20 min): 87% and 110% and 86% | % CBF ([7]; Fig S10b/S10e, Reperfusion 3 h): 120% and 108% and 100% | % CBF ([7]; Fig S10b/S10e, Reperfusion 4 h): 119% and 117% and 112% | % CBF ([7]; Fig S10b/S10e, Reperfusion 24 h): 106% and 104% and 114% | % CBF ([7]; Fig S10b/S10e, mcao 10 min): 78% and 99% and 105% | % CBF ([7]; Fig S10b/S10e, mcao 20min): 76% and 107% and 98% | % CBF ([7]; Fig S10b/S10e, mcao 50 min): 104% and 96% | % CBF ([7]; Fig S10c/S10f, Pre): 100% | % CBF ([7]; Fig S10c/S10f, Reperfusion 10 min): 70% and 72% and 78% | % CBF ([7]; Fig S10c/S10f, Reperfusion 20 min): 75% and 66% and 82% | % CBF ([7]; Fig S10c/S10f, Reperfusion 3 h): 84% and 102% and 81% | % CBF ([7]; Fig S10c/S10f, Reperfusion 4 h): 75% and 87% and 86% | % CBF ([7]; Fig S10c/S10f, Reperfusion 24 h): 83% and 101% and 109% | % CBF ([7]; Fig S10c/S10f, mcao 10 min): 35% and 30% and 25% | % CBF ([7]; Fig S10c/S10f, mcao 20min): 32% and 31% and 24% | % CBF ([7]; Fig S10c/S10f, mcao 50 min): 30% and 27% and 22% | regional cerebral blood flow (rCBF) ([7]; within the 24-h post-stroke period, ischemic mice): does not affect regional cerebral blood flow; also recorded: unaffected | pSPAK/SPAK band intensity ratio ([8]; Hypotonic low Cl, 1 uM): 0.189 and 0.226 and 0.157 and 0.173 | pSPAK/SPAK band intensity ratio ([8]; Hypotonic low Cl, 3 uM): 0.081 and 0.093 and 0.086 and 0.0963 | pSPAK/SPAK band intensity ratio ([8]; Hypotonic low Cl, 10 uM): 0.038 and 0.034 and 0.031 and 0.043 | pSPAK/SPAK band intensity ratio ([8]; Isotonic control, 1 uM): 0.113 and 0.123 and 0.106 and 0.12 | pSPAK/SPAK band intensity ratio ([8]; Isotonic control, 3 uM): 0.067 and 0.051 and 0.053 and 0.059 | pSPAK/SPAK band intensity ratio ([8]; Isotonic control, 10 uM): 0.031 and 0.034 and 0.024 and 0.028 | inhibition of SPAK phosphorylation at Ser373 ([8]; ~3–10 µM ZT-1a, n = 3): 70 ± 3.8% | inhibition at 1 µM ([9]; Homo sapiens, HEK293, read-out: inhibition of phosphorylation of NKCC1 p-Thr203/207/212, 1 µM ZT-1a, HEK-293 cells, n = 4): 72 ± 5.2% | pNKCC1/NKCC1 band intensity ratio ([9]; Hypotonic low Cl, 1 uM): 0.292 and 0.311 and 0.247 and 0.273 | pNKCC1/NKCC1 band intensity ratio ([9]; Hypotonic low Cl, 3 uM): 0.113 and 0.104 and 0.103 and 0.1063 | pNKCC1/NKCC1 band intensity ratio ([9]; Hypotonic low Cl, 10 uM): 0.004 and 0.007 and 0.005 and 0.003 | pNKCC1/NKCC1 band intensity ratio ([9]; Isotonic control, 1 uM): 0.133 and 0.075 and 0.106 and 0.093 | pNKCC1/NKCC1 band intensity ratio ([9]; Isotonic control, 3 uM): 0.048 and 0.046 and 0.043 and 0.041 | pNKCC1/NKCC1 band intensity ratio ([9]; Isotonic control, 10 uM): 0.006 (2×) and 0.004 and 0.005
